Measurements published in ChEMBL document CHEMBL2086234, “Phenolic constituents from the rhizomes of Acorus gramineus and their biological evaluation on antitumor and anti-inflammatory activities” (Bioorg Med Chem Lett, 2012).
The source made the active and inactive calls. The calls are words filed in the database; no cut-off is given here.

Experiments:
BV-2 [1] = assay: Antiinflammatory activity in mouse BV2 cells assessed as inhibition of LPS-induced NO production treated 30 mins before LPS stimulation measured after 24 hrs by Griess reaction; format: functional, cell-based
[2] = Cytotoxicity against mouse BV2 cells assessed as cell viability at 20 uM by MTT assay; format: cell-based, BV-2; conditions: read-out: Activity
A549 = assay: Cytotoxicity against human A549 cells by SRB assay; format: functional, cell-based
SK-MEL-2 = assay: Cytotoxicity against human SK-MEL-2 cells by SRB assay; format: functional, cell-based
HCT-15 = assay: Cytotoxicity against human HCT15 cells by SRB assay; format: functional, cell-based
[3] = target: T1, Nitric oxide synthase, inducible (Mus musculus) (UniProt P29477); assay: Inhibition of iNOS activity in mouse BV2 cells assessed as inhibition of LPS-induced NO production at 20 uM treated 12 hrs before LPS challenge measured after 12 hrs by Griess reaction; format: cell-based; conditions: BV-2
T1 sequence (whole entry): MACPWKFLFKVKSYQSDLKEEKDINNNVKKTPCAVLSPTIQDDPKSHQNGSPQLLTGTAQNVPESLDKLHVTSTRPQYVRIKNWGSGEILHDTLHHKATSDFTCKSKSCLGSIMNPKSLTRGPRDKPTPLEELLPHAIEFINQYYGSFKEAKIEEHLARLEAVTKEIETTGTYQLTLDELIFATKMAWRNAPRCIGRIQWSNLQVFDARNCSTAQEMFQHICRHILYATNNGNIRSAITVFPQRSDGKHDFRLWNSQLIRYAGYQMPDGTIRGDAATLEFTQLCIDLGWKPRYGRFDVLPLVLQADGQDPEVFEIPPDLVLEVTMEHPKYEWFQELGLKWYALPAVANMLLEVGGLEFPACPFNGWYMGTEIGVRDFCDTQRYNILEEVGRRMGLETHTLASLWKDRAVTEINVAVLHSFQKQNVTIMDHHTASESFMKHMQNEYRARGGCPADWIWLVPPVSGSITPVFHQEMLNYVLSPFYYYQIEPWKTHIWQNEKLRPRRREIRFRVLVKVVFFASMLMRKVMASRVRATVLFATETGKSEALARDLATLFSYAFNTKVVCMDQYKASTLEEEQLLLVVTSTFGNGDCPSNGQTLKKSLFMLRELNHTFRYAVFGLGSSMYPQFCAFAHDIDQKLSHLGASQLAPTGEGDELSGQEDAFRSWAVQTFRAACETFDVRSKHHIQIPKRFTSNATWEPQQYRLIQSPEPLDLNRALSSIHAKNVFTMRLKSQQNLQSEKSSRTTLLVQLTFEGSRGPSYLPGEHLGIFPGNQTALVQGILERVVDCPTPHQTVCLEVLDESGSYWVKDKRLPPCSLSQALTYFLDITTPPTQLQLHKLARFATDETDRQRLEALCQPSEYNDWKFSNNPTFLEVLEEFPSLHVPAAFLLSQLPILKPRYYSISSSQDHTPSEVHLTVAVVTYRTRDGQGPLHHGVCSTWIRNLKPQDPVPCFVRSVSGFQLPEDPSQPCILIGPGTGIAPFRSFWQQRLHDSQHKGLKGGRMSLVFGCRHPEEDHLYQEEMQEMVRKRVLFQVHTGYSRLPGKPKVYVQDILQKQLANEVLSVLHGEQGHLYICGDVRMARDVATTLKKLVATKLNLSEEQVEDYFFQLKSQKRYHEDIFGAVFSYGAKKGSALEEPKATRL

SK-OV-3 = assay: Cytotoxicity against human SKOV3 cells by SRB assay; format: functional, cell-based
BV-2 [4] = assay: Antiinflammatory activity in mouse BV2 cells assessed as inhibition of LPS-induced iNOS protein expression at 10 to 20 uM treated 30 mins before LPS stimulation measured after 6 hrs by Western blot analysis; format: functional, cell-based
BV-2 [5] = assay: Antiinflammatory activity in mouse BV2 cells assessed as inhibition of sodium nitroprusside-induced nitrite accumulation at 10 to 20 uM after 180 mins by Griess reaction; format: functional, cell-based

Compound	IC50 (BV-2 [1])	viability at 20 µM [2]	IC50 (A549)	IC50 (SK-MEL-2)	IC50 (HCT-15)	inhibition [3]	IC50 (SK-OV-3)	inhibition (BV-2 [4])	inhibition (BV-2 [5])
CNC(=N)NCCC[C@H](N)C(=O)O [TILARGININE]	18.2 µM	98.8%	–	–	–	–	–	–	–
COc1cc(CCCO)ccc1O[C@H](C)[C@H](O)c1cc(OC)c(OC)c(OC)c1	17.9 µM	88.8%	4.17 µM	14.2 µM	24.3 µM	Active	26.2 µM	–	–
COc1cc(CCCO)cc(OC)c1OC	142 µM	96.3%	> 30 µM	> 30 µM	> 30 µM	–	> 30 µM	–	–
COc1cc(OC)c([C@H]2[C@@H](C)[C@@H](c3cc(OC)c(OC)cc3OC)O[C@@H]2C)cc1OC (relative stereo)	59.9 µM	101%	> 30 µM	11.3 µM	> 30 µM	–	26.4 µM	–	–
COc1cccc2c1C(=O)c1c(O)c3c(c(O)c1C2=O)C[C@@](O)(C(=O)CO)C[C@@H]3O[C@H]1C[C@H](N)[C@H](O)[C@H](C)O1 [DOXORUBICIN]	–	–	–	0.004 µM	0.082 µM	–	0.004 µM	–	–
O=C(CCO)c1ccc(O)cc1	58.1 µM	107%	> 30 µM	> 30 µM	> 30 µM	–	> 30 µM	–	–
COc1cc(/C=C\CO)ccc1O	14.1 µM	98.4%	11 µM	14.7 µM	20.4 µM	Active	13 µM	Active	–
COc1cc(/C=C\C(=O)NCCc2ccc(O)cc2)ccc1O	32.1 µM	100%	> 30 µM	> 30 µM	> 30 µM	–	> 30 µM	–	–
COc1cc(CCCO)ccc1O[C@H](C)[C@@H](O)c1cc(OC)c(OC)c(OC)c1 [SURINAMENSINOL B]	8.17 µM	76.2%	5.41 µM	10.4 µM	18.8 µM	–	21.4 µM	–	Active
COc1cc(OC)c([C@@H]2[C@H](C)[C@@H](C)[C@H]2c2cc(OC)c(OC)cc2OC)cc1OC (relative stereo) [MAGNOSALIN]	18.7 µM	93.1%	19.6 µM	8.7 µM	23.1 µM	–	27.4 µM	Active	Active
COc1ccc(CCCO)cc1OC	> 500 µM	103%	23.1 µM	21.9 µM	26.6 µM	–	11.8 µM	–	–
COc1cc(/C=C/C(=O)NC[C@@H](O)c2ccc(O)cc2)ccc1O	54.8 µM	98.3%	> 30 µM	> 30 µM	> 30 µM	–	> 30 µM	–	–
COc1cc(OC)c(OC)cc1/C=C\CO [ACORAMOL]	126 µM	105%	> 30 µM	25.2 µM	> 30 µM	–	> 30 µM	–	–
COc1cc(/C=C/C(=O)NCCc2ccc(O)cc2)ccc1O [N-TRANS-FERULOYL TYRAMINE]	17.4 µM	97.8%	> 30 µM	> 30 µM	> 30 µM	Active	> 30 µM	Active	Active
COc1cc([C@H](O)[C@@H](CO)Oc2c(OC)cc(CCCO)cc2OC)ccc1O (relative stereo)	37.2 µM	106%	> 30 µM	29.1 µM	> 30 µM	–	> 30 µM	–	–
